Measured values as given in US8546395B2, “6-cycloamino-3-(1H-pyrrolo[2,3-b]pyridin-4-yl)imidazo[1,2-b]pyridazine derivatives, preparation thereof and therapeutic use thereof” (Sanofi, priority 2008, dated 2013).

Legend:
[1] = molecular target: T1, casein kinase 1 epsilon (CK1 epsilon) (Homo sapiens, UniProt P49674); assay: Filter-plate assay of ATP-33P for CK1 epsilon inhibitors (phosphorylation of casein); format: biochemical; settings: casein substrate, ATP-33P with 10 μM cold ATP, 2 hours at ambient temperature
T1 construct: Invitrogen Corporation (as an alternative)
Procedure: The capacity of the compounds of the invention to inhibit the phosphorylation of casein by casein kinase 1 epsilon and delta may be evaluated according to the procedure described in US 2005/0131012.
Filter-Plate Assay of ATP-^33P for the Screening of CK1 Epsilon Inhibitors:
The effect of the compounds on inhibition of the phosphorylation of casein by the enzyme casein kinase 1 epsilon (CK1 epsilon) is measured, using a casein assay with filtration of ATP-^33P in vitro.
Casein kinase 1 epsilon (0.58 mg/ml) is obtained via fermentation and purification processes performed according to methods that are well known to those skilled in the art, or may also be obtained from Invitrogen Corporation™ (human CK1 epsilon).
The compounds are tested at five different concentrations so as to generate IC50 values, i.e. the concentration at which a compound is capable of inhibiting the enzymatic activity by 50%, or alternatively the percentage of inhibition at a concentration of 10 micromolar.
“U”-bottomed Falcon plates are prepared by placing 5 μL of solutions of the compounds according to the invention at concentrations of 10, 1, 0.1, 0.01 or 0.001 μM in various wells. The solutions of the compounds according to the invention at these various concentrations are prepared by diluting in a test buffer (50 mM Tris, pH 7.5, […], 2 mM DTT and 1 mM EGTA) a stock solution in DMSO at a concentration of 10 mM. Next, 5 μL of dephosphorylated casein are added to a final concentration of 0.2 μg/μL, 20 μl of CK1 epsilon to a final concentration of 3 ng/μl, and 20 μl of ATP-^33P to a final concentration of 0.02 μCi/μl mixed with cold ATP (10 μM final—approximately 2×10^6 CPM per well). The final total test volume per well is equal to 50 μl.
The “U”-bottomed Falcon® test plate mentioned above is vortexed, and then incubated at ambient temperature for 2 hours. After 2 hours, the reaction is stopped by adding an ice-cold solution of 65 μl of ATP (2 mM) prepared in test buffer.
100 μl of the reaction mixture are then transferred from the “U”-bottomed Falcon® plate into Millipore® MAPH filter plates, preimpregnated with 25 μl of ice-cold 100% TCA. […]
The plates are left to dry overnight at ambient temperature. […] The radiation emitted by each well is then measured for 2 minutes in a Packard® Topcount NXT scintillation counter, in which the values of CPM/well are measured.
The percentage inhibition of the capacity of the enzyme to phosphorylate the substrate (casein) is determined for each concentration of compound tested. These inhibition data expressed as percentages are used to calculate the IC50 value for each compound compared with the controls.
The kinetic studies determined the KM value for ATP as being 21 μM in this test system.

[2] = system: Mper1-luc Rat-1 (P2C4) fibroblasts; assay: Circadian cell assay (mPer1-luciferase reporter, period prolongation); format: cell-based; settings: effective concentration that induced a 1-hour prolongation of the circadian period, interpolated from hyperbolic curve
Procedure: Experimental Protocols for Circadian Cell Assay
Mper1-luc Rat-1 (P2C4) fibroblast cultures were prepared by dividing the cultures every 3-4 days (approximately 10-20% of confluence) on 150 cm^2 degassed polystyrene tissue culture flasks (Falcon® #35-5001) and maintained in growth medium [EMEM (Celigro #10-010-CV); 10% foetal bovine serum (FBS; Gibco #16000-044); and 50 I.U./ml of penicillin-streptomycin (Celigro #30-001-CI)] at 37° C. and under 5% CO2.
Cells obtained from Rat-1 fibroblast cultures at 30-50% of confluence as described above were co-transfected with vectors containing the selection marker for resistance to zeocin for a stable transfection and a luciferase reporter gene controlled by the mPer-1 promoter. After 24 to 48 hours, the cultures were divided on 96-well plates and maintained in growth medium supplemented with 50-100 μg/ml of zeocin (Invitrogen® #45-0430) for 10-14 days. The zeocin-resistant stable transfectants were evaluated for the expression of the reporter by adding 100 μM luciferin (Promega® #E1603®) to the growth medium and by assaying the luciferase activity on a TopCount scintillation counter (Packard Model #C384V00). The Rat-1 cell clones expressing both zeocin resistance and lucerifase activity controlled by mPer1 were serum-shock synchronized with 50% horse serum [HS (Gibco® #16050-122)] and the activity of the circadian reporter was evaluated. The P2C4 clone of Mper1-luc Rat-1 fibroblasts was selected to test the compound. Mper1-luc Rat-1 ([…]) fibroblasts at 40-50% of confluence, obtained according to the protocol described above, were plated out onto 96-well opaque tissue culture plates (Perkin Elmer® #6005680). […]
The period analysis was performed either by determining the interval between the relative light emission minima over several days or by Fourier transform. […] The data were analysed by adjusting a hyperbolic curve to the data expressed as change of period (y-axis) as a function of the concentration of the test compound (x-axis) in the XLfit™ software and the CE Delta (t+1 h) was interpolated from this curve.

human CK1 delta = molecular target: T2, human CK1 delta (Homo sapiens, UniProt P48730); assay: FRET fluorescence test (Z'Lyte kinase assay Kit), peptide substrate SER/THR 11; format: biochemical; settings: peptide substrate 2 μM, ATP at 4 times the KM
T2 construct: purchased Invitrogen Corporation PV3665
Excerpt: The capacity of the compounds of the invention to inhibit the phosphorylation of casein by casein kinase 1 epsilon and delta may be evaluated using a FRET (“Fluorescence Resonance Energy Transfer) fluorescence test with the aid of the “Z'Lyte™ kinase assay Kit” (reference PV3670; Invitrogen Corporation™) according to the manufacturer's instructions.
The casein kinases 1 used are obtained from Invitrogen Corporation (human CK1 epsilon PV3500 and human CK1 delta PV3665).
A peptide substrate, labelled at both ends with a fluorophor donor group (coumarin) and a fluorophor acceptor group (fluorescein) constituting a FRET system is phosphorylated in the presence of ATP by casein kinase 1 epsilon or delta in the presence of increasing concentrations of compounds of the invention.
The mixture is treated with a site-specific protease that specifically cleaves the peptide substrate to form two fluorescent fragments having a large fluorescence emission ratio.
The fluorescence observed is thus related to the capacity of the products of the invention to inhibit the phosphorylation of the peptide substrate by casein kinase 1 epsilon or casein kinase 1 delta.
The compounds of the invention are dissolved at different concentrations starting with a 10 mM stock solution in DMSO diluted in a buffer containing 50 mM HEPS, pH 7.5, 1 m MEGTA, 0.01% Brij-35, 10 mM MgCl2 for casein kinase 1 epsilon and supplemented with Trizma Base (50 mM), pH 8.0, and NaN3 (0.01% final) for casein kinase 1 delta.
The phosphorylation of the peptide substrate SER/THR 11 obtained from Invitrogen Corporation™ is performed at a final concentration of 2 μM. The ATP concentration is 4 times the KM, this value being 2 μM for casein kinase 1 epsilon and 4 μM for casein kinase 1 delta.
The emitted fluorescence is measured at wavelengths of 445 and 520 nm (excitation at 400 nm).

T2 sequence (P48730 whole entry): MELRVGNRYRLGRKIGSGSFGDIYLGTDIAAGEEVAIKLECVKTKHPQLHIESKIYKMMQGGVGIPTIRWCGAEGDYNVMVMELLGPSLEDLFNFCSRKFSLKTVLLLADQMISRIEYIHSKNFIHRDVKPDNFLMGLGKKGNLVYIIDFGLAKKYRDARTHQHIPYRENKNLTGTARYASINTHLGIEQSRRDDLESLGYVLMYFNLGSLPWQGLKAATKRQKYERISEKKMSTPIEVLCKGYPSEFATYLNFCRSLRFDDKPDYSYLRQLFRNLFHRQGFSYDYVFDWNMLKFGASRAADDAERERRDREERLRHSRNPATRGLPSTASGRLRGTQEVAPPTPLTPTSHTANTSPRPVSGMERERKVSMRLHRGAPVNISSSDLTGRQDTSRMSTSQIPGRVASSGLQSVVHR
T1 sequence (P49674 whole entry): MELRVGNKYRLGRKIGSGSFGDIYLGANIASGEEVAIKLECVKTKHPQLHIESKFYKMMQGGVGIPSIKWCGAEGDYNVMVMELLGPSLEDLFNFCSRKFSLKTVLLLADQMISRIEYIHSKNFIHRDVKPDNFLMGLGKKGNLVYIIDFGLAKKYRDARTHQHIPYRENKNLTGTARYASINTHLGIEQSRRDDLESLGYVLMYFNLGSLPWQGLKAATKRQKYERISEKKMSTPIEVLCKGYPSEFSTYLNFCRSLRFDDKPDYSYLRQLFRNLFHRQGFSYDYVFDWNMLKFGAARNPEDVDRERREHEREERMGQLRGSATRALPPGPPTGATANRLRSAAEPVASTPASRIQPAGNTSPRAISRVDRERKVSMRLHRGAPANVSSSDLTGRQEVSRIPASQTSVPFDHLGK

Structure (SMILES): C[C@@H]1CN(c2ccc3nc(-c4ccc(F)cc4)c(-c4ccnc5[nH]ccc45)n3n2)CCN1 [Compound 6, 2-(4-Fluorophenyl)-6-[(3R)-3-methylpiperazin-1-yl]-3-(1H-pyrrolo[2,3-b]pyridin-4-yl)imidazo[1,2-b]pyridazine]
- IC50 [1]: 1 to 2 nM
- CE Delta (t + 1 h) [2]: 2 to 3 nM
- melting point: 285 to 287 °C

Structure (SMILES): CC(C)(O)CN1CCN(c2ccc3nc(-c4ccc(F)cc4)c(-c4ccnc5[nH]ccc45)n3n2)CC1 [Compound 20, 1-{4-[2-(4-Fluorophenyl)-3-(1H-pyrrolo[2,3-b]pyridin-4-yl)imidazo[1,2-b]pyridazin-6-yl]piperazin-1-yl}-2-methylpropan-2-ol]
- IC50 (human CK1 delta): 30 to 42 nM
- melting point: 273 to 276 °C

Structure (SMILES): Cc1cc(N2C[C@H]3CN(C)C[C@H]3C2)nn2c(-c3ccnc4[nH]ccc34)c(-c3ccc(F)cc3)nc12 [Compound 29, (Cis)-2-(4-fluorophenyl)-8-methyl-6-(5-methyl-hexahydropyrrolo[3,4-c]pyrrol-2(1H)-yl)-3-(1H-pyrrolo[2,3-b]pyridin-4-yl)imidazo[1,2-b]pyridazine]
- IC50 (human CK1 delta): 5 nM

Structure (SMILES): Fc1ccc(-c2nc3ccc(N4CCC5(CCCNC5)CC4)nn3c2-c2ccnc3[nH]ccc23)cc1 [Compound 35, 9-[2-(4-Fluorophenyl)-3-(1H-pyrrolo[2,3-b]pyridin-4-yl)imidazo[1,2-b]pyridazin-6-yl]-2,9-diazaspiro[5.5]undecane]
- IC50 [1]: 6 nM
- CE Delta (t + 1 h) [2]: 305 nM
